For one data set, the system named is NIH-3T3 fibroblasts. Put plainly: Neutral Red assay of NIH-3T3 fibroblast viability. In kind it is cell-based. Conditions: for impact on viability of NIH-3T3 cells: concentrations between 10^-12 and 10^-6 mol/L; for effect on NIH-3T3 cell viability: drug at concentrations between 10^-12 and 10^-4 mol/L, relative to control (no drug), 48 hours. As for the experimental part: Cell survival and viability of NIH-3T3 fibroblasts were measured using a Neutral Red Assay. NIH-3T3 fibroblasts were seeded into 96-well cell culture plates at a density of 10^4 cells/well in Dulbecco's Modified Eagle's Medium supplemented with 10% fetal calf serum. After 48 hours, cells were stained using a Neutral Red Assay. Neutral red is taken up only by living cells.
After incubation for 3 hours and several washing steps, cells were permeabilized and the neutral red solubilized in the supernatant. The absorption measured at 570 nm is proportional to the number of living cells. Measurements were run in quintuplicate and results were averaged. The experiment was repeated at least four times.
(§1) Discs (0.1 mm thick and 6 mm in diameter) of poly(L-lactide) (PLLA, Resomer L214, Boehringer Ingelheim Pharma GmbH & Co. KG, Ingelheim, Germany), poly(4-hydroxybutyrate) (P(4HB), Tepha, Inc., Lexington, Mass., USA) and silicone were placed at the bottom of standard 96-well tissue culture plates. Microtiter plates without material additions served as controls. Cells were seeded into each of the different cell culture wells and the assays were carried out as described above in Examples 1 and 2. For absorption measurements when using NIH-3T3 cells and neutral red test, the supernatant of all wells was transferred into new wells after permeabilization of the cells. Surviving spiral ganglion cells were stained directly on the polymer discs and counted.
The NIH-3T3 fibroblasts were cultured and assayed with Neutral Red according to Example 1, except that dexamethasone or sirolimus were added to the cell culture at concentrations between 10^−12 and 10^−4 mol/L. The percentage of viable NIH-3T3 cells was assayed relative to the control (no drug) and the results are shown in FIGS. 2 (dexamethasone) and 3 (sirolimus).

In a further data set the test system is spiral ganglion cells. Put plainly: Spiral ganglion cell survival by anti-neurofilament antibody staining and microscopic counting. Type of data set: cell-based, Sprague-Dawley rats. Conditions: for impact on viability of SGC: concentrations between 10^-12 and 10^-6 mol/L; for viability (survival) of spiral ganglion cells at high concentration: concentration of 10^-5 mol/L (FIG. 3). As for the experimental part:
Spiral ganglion cells were freshly isolated from Sprague-Dawley rats (p3-5). Viable cells were suspended in Dulbecco's Modified Eagle's Medium supplemented with 10% fetal calf serum and 50 ng/ml BDNF and were seeded onto laminin- and ornithin-coated cell culture plates at a density of 1.5×10^4 cells/well. After a cultivation time of 48 hours, cells were stained with anti-neurofilament antibody and counted under a microscope. All experiments were performed in quadruplicate and the experiment was repeated four times.
as §1

SMILES strings stand for the structures.

In the case of `C[C@@H]1C[C@H]2[C@@H]3CCC4=CC(=O)C=C[C@]4(C)[C@@]3(F)[C@@H](O)C[C@]2(C)[C@@]1(O)C(=O)CO` [dexamethasone], in the data set on NIH-3T3 fibroblasts, the “impact on viability of NIH-3T3 cells” value is “do not have an adverse impact” and the “effect on NIH-3T3 cell viability” value is reported as “no toxic effects”. For the same compound, the “increase of spiral ganglion cell viability” value in the data set on spiral ganglion cells (concentrations between 10^-11 to 10^-7 mol/L (FIG. 2)) is on record as about 20%. Moreover, the “impact on viability of SGC” value in the data set with spiral ganglion cells is “do not have an adverse impact”. In addition, the “effect on spiral ganglion cell viability” value with spiral ganglion cells (drug at concentrations between 10^-12 and 10^-4 mol/L, relative to control (no drug), 48 hours) was “no toxic effects”.
As to `CO[C@H]1C[C@@H]2CC[C@@H](C)[C@@](O)(O2)C(=O)C(=O)N2CCCC[C@H]2C(=O)O[C@H]([C@H](C)C[C@@H]2CC[C@@H](O)[C@H](OC)C2)CC(=O)[C@H](C)/C=C(\C)[C@@H](O)[C@@H](OC)C(=O)[C@H](C)C[C@H](C)/C=C/C=C/C=C/1C` [sirolimus], in the data set with NIH-3T3 fibroblasts, the “impact on viability of NIH-3T3 cells” value was “do not have an adverse impact” and the “effect on NIH-3T3 cell viability” value is reported as “only a small decrease”. In the data set on spiral ganglion cells, the “viability (survival) of spiral ganglion cells at high concentration” value is recorded as “reduced” and the “impact on viability of SGC” value is “do not have an adverse impact”. For the same compound, in the data set with spiral ganglion cells (listed as Sirolimus), the “viability (survival) of spiral ganglion cells at high concentration” value is “substantially reduced”.

Source of the values: patent publication US9162010B2, “Drug eluting cochlear implants” (Tepha, Inc., priority 2010, dated 2015).
